Results reported in patent US9084769B2, “Compositions comprising non steroidal anti-inflammatory drugs and methods for use thereof” (priority 2011, dated 2015).
Like-named read-outs stand apart in the source and are kept apart here. Each block holds one compound with its values, some of them ahead of it.

Legend:
[1] = changes in hemoglobin over seven weeks (HemoCue Hb 201); format: in vivo; details: mice followed for seven weeks, blood on days 0, 14, 28, 49; FIG. 3
[2] = test system: Carrageenin-induced hind paw edema; test: Carrageenin-induced hind paw edema; format: in vivo, SD rats; details: oral, specific predetermined doses; plethysmometer, baseline and three hours after induction
Description: C57Bl/6 mice and Sprague-Dawley (SD) rats were used. Animals were group-housed under controlled temperature (25° C.) and photoperiods (12:12-hour light-dark cycle), and allowed unrestricted access to standard diet and tap water, unless otherwise noted. Animals were allowed to acclimate to these conditions for at least 7 days before inclusion in experiments. For each group of experiments, animals were matched by age, sex, and body weight. Care and experimentation of mice were performed in accordance with guidelines under protocols approved by the Institutional Animal Care and Use Committee. To evaluate the effects of inflammation, Epi, ZnCar, Ibu, Nap, Cox, Ibu+Epi, Ibu+ZnCl, Ibu+ZnSt, Ibu+ZnCar, Ibu+Epi+ZnCl, and Ibu+Epi+ZnCar were administered in specific predetermined doses. Six rats were used in each group. Carrageenin-induced hind paw edema was established in SD rats using Lambda-carrageenin solution injected so into the right hind paw within the first hour of oral administration of these drugs. The paw volume was estimated using a plethysmometer both at baseline and three hours following induction.

[3] = test system: acetylcholine-induced mouse writing model; test: acetylcholine-induced mouse writing model (analgesic effects); format: in vivo, mice; details: oral, predetermined ED50 dose ranges, 30 min before i.p. acetylcholine; writhes counted for 30 min; FIG. 1
Description: C57Bl/6 mice and Sprague-Dawley (SD) rats were used. Animals were group-housed under controlled temperature (25° C.) and photoperiods (12:12-hour light-dark cycle), and allowed unrestricted access to standard diet and tap water, unless otherwise noted. Animals were allowed to acclimate to these conditions for at least 7 days before inclusion in experiments. For each group of experiments, animals were matched by age, sex, and body weight. Care and experimentation of mice were performed in accordance with guidelines under protocols approved by the Institutional Animal Care and Use Committee.
To evaluate the effects of pain, the analgesic effects of Epi, ZnCar, Ibu, Nap, Cox, Ibu+Epi, Ibu+ZnCl, Ibu+ZnSt, Ibu+ZnCar, Ibu+Epi+ZnCl, and Ibu+Epi+ZnCar were tested in acetylcholine-induced (8.3 mg/kg, i.p.) mouse writing model. Seven mice were used in each group and were administered drugs orally at predetermined ED50 dose ranges. Thirty minutes after the oral administration of test drug, mice were provided with an intraperitoneal injection of 5.5 mg/kg acetylcholine bromide. […] The number of writhes was counted for 30 min and percentage nociception was calculated and correlatively compared between the groups.

change in hemoglobin [1]: progressive decrease in hemoglobin
Compound: Cc1ccc(-c2cc(C(F)(F)F)nn2-c2ccc(S(N)(=O)=O)cc2)cc1 [Cox, celecoxib]
change in systolic blood pressure (in words) (mice, measured daily, tail-cuff, p<0.05): significant elevations in systolic blood pressure

Compound: O=C[C@@H](O)[C@@H](O)[C@H](O[C@@H]1O[C@H](CO)[C@H](O)[C@H](O)[C@H]1O)[C@H](O)CO [Epi, 4-O-β-galactopyranosyl-d-mannose]
clinical response, paw volume 3 hours after carrageenin injection [2]: did not exhibit therapeutic efficacy in the management of acute inflammation
antinociceptive response (number of writhes, percentage nociception) [3]: did not exhibit therapeutic efficacy in the management of acute pain

Compound: CC(C)Cc1ccc(C(C)C(=O)O)cc1 (centres unmarked) [Ibu, ibuprofen]
change in hemoglobin [1]: progressive highly significant decrease in hemoglobin
change in systolic blood pressure (in words) (mouse, in vivo): significant elevations in systolic blood pressure
systolic blood pressure (mean) (mouse, in vivo): 129.3 mmHg

change in hemoglobin [1]: progressive decrease in hemoglobin
Compound: COc1ccc2cc([C@H](C)C(=O)O)ccc2c1 [Nap, naproxen]
change in systolic blood pressure (in words) (mouse, in vivo): significant elevations in systolic blood pressure

Compound: zinc carnosine [ZnCar]
clinical response, paw volume 3 hours after carrageenin injection [2]: did not exhibit therapeutic efficacy in the management of acute inflammation
antinociceptive response (number of writhes, percentage nociception) [3]: did not exhibit therapeutic efficacy in the management of acute pain
